System: trypsin
Assay: Trypsin activity, fluorescence assay (EnzChek Protease Assay Kit E6639)
Type: biochemical
Settings: trypsin 100 μg/ml, 50 mM Tris-HCl pH 8.0
Method: Typsin activity was assessed using a commercial assay employing fluorescence measurement (EnzChek® Protease Assay Kit E6639 from Molecular Probes). The assayed solutions contained trypsin (100 μg/ml) and various amounts of the zinc salts in 50 mM Tris-HCl (pH 8.0).

Molecule	Protease inhibition (salt concentration 0.0001 wt %)	Protease inhibition (salt concentration 0.001 wt %)	Protease inhibition (salt concentration 0.01 wt %)	Protease inhibition (salt concentration 0.1 wt %)	Protease inhibition (salt concentration 1 wt %)
O.O.O.O.O.O.O.O=S(=O)([O-])[O-].[Zn+2] [Zinc Sulfate Heptahydrate]	4%	14%	33%	92%	93%
[Cl-].[Cl-].[Zn+2] [Zinc Chloride]	7%	20%	69%	93%	96%
Zinc Gluconate	−4%	10%	28%	94%	94%

From US20160303009A1, “HAIR CARE COMPOSITION” (CONOPCO, INC., D/B/A UNILEVER, priority 2013, published 2016)
